Measured values reported in publication PMC3022637, “The modulation of TRPM7 currents by nafamostat mesilate depends directly upon extracellular concentrations of divalent cations” (Molecular Brain, 2010).

System: CA1 neurons in the hippocampal slice
Experiment: Low divalent-induced inward current in CA1 neurons in the hippocampal slice
Format: cell-based
Settings: co-perfusion
Description: To verify this we tested several compounds with benzene rings on their outer edge such as DAPI and HSB. Both DAPI and HSB are di-cations but with amidine groups at both termini. […] We also examined the actions of NM on CA1 neurons in the hippocampal slice in order to confirm whether or not NM was capable of inhibiting and activating this current in CA1 neurons in situ. The diffusion barriers presented in the slice preparation preclude very rapid changes in divalent cation concentrations but prolonged solution changes can be used to activate TRPM7 currents in this preparation. Lowering concentrations of divalent cations induced a slowly activating inward current that was attenuated by the co-perfusion of NM (not shown).

## N=C(N)c1ccc2cc(OC(=O)c3ccc(N=C(N)N)cc3)ccc2c1 [NM, 6-amidino-2-naphthyl-4-guanidinobenzobate dimethanesulfonate]
  effect on slowly activating inward current induced by lowering divalent cations: attenuated
